Results: patent US20130231480A1, “SEQUENCE SPECIFIC DOUBLE-STRANDED DNA/RNA BINDING COMPOUNDS AND USES THEREOF” (GENEARREST LTD, priority 2010, published 2013)

How the values were obtained:
25 mer A-T-DNA [1] = test: TM measurement by RT-PCR (HRM/SYBR green), A-T DNA; type: binding; details: for shift in TM of A-T DNA: (d/dT) fluorescence (465-510), compared to the control without addition; for TM of 25 mer A-T-DNA in the treated well: control wells 56.1-57.1° C.
Procedure: (§1) The primers listed in Table 4 were purchased from Sigma Aldrich (Israel). Primers number 1 and 3 are complementary and annealed to form CG/GC double-stranded DNA fragment, and primers number 5 and 7 are complementary and annealed to form AT double-stranded DNA fragment. The DNA complementary oligomers were hybridized in a medium salt buffer containing 10 mM NaCl, 10 mM sodium phosphate and 0.1 mM EDTA, pH 7.0. The samples were heated to 90° C. for 5 min, slowly cooled to 20° C. and left at 4° (1 until used for TM measurements with RT-PCR.
(§2) According to this method, 5 μl of a selected double-stranded DNA is incubated with a 5 μl solution of a selected compound at RT for 5 min; 10 μl HRM/SYB (high resolution melting/syber green I) (X2) are then added; and the TM is then measured. The run program for TM measurement is as following: keep temperature of final solution at 25° C. for 5 min, raise temperature up to 99° C. with a rate of 0.1° C./sec, and then cool to 37° C.
(§3) In a further study, the effect of AH-11 as well as three additional similar compounds having the same heterocyclic (pyridine) core on the TM of DNA double-stranded sequences consisting of A-T or C-G base pairs only was tested by RT-PCR as described in Materials and Methods. The additional compounds tested are 4-amino-N-(6-aminopyridin-2-yl)butanamide, N,N′-(pyridine-2,6-diyl)bis(3-aminopropanamide), and N,N′-(pyridine-2,6-diyl)bis(4-aminobutanamide), herein identified […] and AH-14, respectively (chemical structures are shown in Scheme 5). […] Compounds AH-11, AH-12 and AH-13 increased the TM of 25 mer A-T-DNA by 4.2° C., 5.7° C. and 9.9° C., respectively. In all four cases, no effect was observed on the TM of 25 mer C-G-DNA (the TM shift range between 0.3 and 0.8° C.).
(§4) In this study, the ability of monomer units M1-6a, designed to be specific for A-T base pairs only, and M4-4a, designed to be specific for C-G base pairs only, to effectively and selectively bind to DNA double-stranded sequences consisting of A-T or C-G base pairs only was tested using the RT-PCR method as described in Material and Methods. Nevertheless, in order to neutralize a possible influence of the carboxylic groups of these monomers on the specificity and selectivity of the monomers, the compounds practically used were 3-(2-amino-9-(2-((2-(tert-butoxycarbonylamino)ethyl)(2-ethoxy-2-oxoethyl)amino)-2-oxoethyl)-9H-purin-6-ylamino)-N,N,N-trimethylpropan-1-aminium and 3-(9-(2-((2-(tert-butoxycarbonylamino)ethyl)(2-ethoxy-2-oxoethyl)amino)-2-oxoethyl)-2-oxo-2,9-dihydro-1H-purin-6-ylamino)-N,N,N-trimethylpropan-1-aminium, which are analogs of these monomer units M1-6a and M4-4a, respectively, in which the carboxyl groups are protected with ethyl (see Scheme 10 and 17).

[2] = tested on: restriction enzyme (satI); test: Prevention of restriction enzyme digestion of a PCR product (agarose gel); type: biochemical; details: for preventing restriction enzyme satI from digesting the DNA fragment: lanes 5+5B, 5+7B, 10+7B compared with cut 5 and cut 10 without AH-13
From the text: This can be seen by comparing lanes “5+5B”, “5+7B” and “[…]” with “cut 5” and “cut 10”, wherein no AH-13 was used.

25 mer C-G-DNA [3] = test: TM measurement by RT-PCR (HRM/SYBR green), C-G DNA; type: binding; details: for shift in TM of C-G DNA: (d/dT) fluorescence (465-510), compared to the control without addition; for TM of 25 mer C-G-DNA in the treated well: control wells 84.3-86° C.
Procedure: as §1, §2, §3, §4
The biological activity of the polymers synthesized, i.e., their ability to specifically interact with specific fragments of double-stranded DNA, was tested using the RT-PCR method, as described in Materials and Methods.

25 mer A-T-DNA [4] = test: TM measurement by RT-PCR (HRM/SYBR green), A-T DNA; type: binding; details: incubation time from 5 min to 60 or 100 min
25 mer A-T-DNA [5] = test: TM of treated duplex DNA by UV spectra at 260 nm, A-T DNA; type: binding; details: UV 260 nm; incubated at 37° C. for 36 hours; TM without compound 53° C.
Procedure: (§5) Duplex DNA (dsDNA-1,2) sequences are formed by incubating a solution of single-strand DNA-1 and single-strand DNA-2 (1:1) at 90° C. for 5 min, and slowly cooling down to RT for 1-2 hours. Treated Duplex DNA (dsDNA-1,2 bonded to a triplex forming molecule of the invention) is formed by incubating a solution of triplex forming molecule (TFM) of the invention and dsDNA-1,2 (1:1) at 37° C. for 36 hours.
(§6) The melting temperature (TM), i.e., the temperature at which a DNA double helix dissociates into single strands, measurements of Duplex DNA or Treated Duplex DNA are carried out using quartz cuvettes with an optical path length of 1 cm on a Cray 300 UV/vis spectrophotometer interfaced with a computer for data collection and analysis. The temperature is increased from 30° C. to 98° C. at the rate of 1° C./min, and the TM is determined by plotting the first derivative of the absorbance at 260 nm vs. temperature profile. TM is defined as the temperature at which half the molecules are single-stranded.
(§7) In order to test the effect of AH-11, designed to be specific for A-T base pair, on the TM of DNA double-stranded sequences consisting of A-T or C-G base pairs only, two solutions each containing one of the aforesaid sequences were incubated with a solution containing the compound AH-11 at 37° C. for 36 hours, and treated double-stranded DNA were formed. […]

25 mer C-G-DNA [6] = test: TM of treated duplex DNA by UV spectra at 260 nm, C-G DNA; type: binding; details: UV 260 nm; incubated at 37° C. for 36 hours
Procedure: as §5, §6, §7

| Compound | shift in TM of A-T DNA (25 mer A-T-DNA [1]) [°C] | TM of 25 mer A-T-DNA in the treated well (25 mer A-T-DNA [1]) [°C] | shift in TM of C-G DNA (25 mer C-G-DNA [3]) [°C] | effect on the TM of 25 mer A-T-DNA (25 mer A-T-DNA [1]) | TM of 25 mer C-G-DNA in the treated well (25 mer C-G-DNA [3]) [°C] | further results |
| --- | --- | --- | --- | --- | --- | --- |
| NCCC(=O)Nc1cccc(NC(=O)CCN)n1 [AH-13, N,N′-(pyridine-2,6-diyl)bis(3-aminopropanamide)] | 9.9 |  |  |  |  | interference with satI enzyme activity in lane 10+5B ([2]; 10 μl PCR product + 5 μl AH-13, both cut and uncut DNA present): not sufficient to completely interfere with the enzyme activity; preventing restriction enzyme satI from digesting the DNA fragment [2]: capable in a concentration dependent manner of preventing a restriction enzyme (satI); preventing restriction enzyme satI from digesting the DNA fragment ([2]; listed as AH-1): capable of specifically interfering with the activity of the restriction enzyme satI, in a concentration dependent manner |
| NCCCC(=O)Nc1cccc(N)n1 [AH-12, 4-amino-N-(6-aminopyridin-2-yl)butanamide] | 5.7 |  |  |  |  |  |
| 3-(2-amino-9-(2-((2-(tert-butoxycarbonylamino)ethyl)(2-ethoxy-2-oxoethyl)amino)-2-oxoethyl)-9H-purin-6-ylamino)-N,N,N-trimethylpropan-1-aminium [analog of M1-6a] | 6.9 | 63 | < 1.0 |  |  | effect on the TM of 25 mer C-G-DNA (25 mer C-G-DNA [3]): did not affect |
| CC(C)(C)OC(=O)NCCN(CC(=O)O)C(=O)Cn1cnc2c(NCCC[N+](C)(C)C)[nH]c(=O)nc21 [M4-4a, 3-(9-(2-((2-(tert-butoxycarbonylamino)ethyl)(carboxymethyl)amino)-2-oxoethyl)-2-oxo-2,9-dihydro-1H-purin-6-ylamino)-N,N,N-trimethylpropan-1-aminium] |  | 57.4 |  | did not affect at all | 90.1 |  |
| CC(C)(C)OC(=O)NCCN(CC(=O)O)C(=O)Cn1cnc2c(NCCC[N+](C)(C)C)nc(N)nc21 [M1-6a, 3-(2-amino-9-(2-((2-(tert-butoxycarbonylamino)ethyl)(carboxymethyl)amino)-2-oxoethyl)-9H-purin-6-ylamino)-N,N,N-trimethylpropan-1-aminium] |  | 63 |  |  | 85.1 | TM of treated 25 mer A-T-DNA upon increasing the incubation time (25 mer A-T-DNA [4]): No difference; effect on the TM of 25 mer C-G-DNA (25 mer C-G-DNA [3]): did not affect at all |
| NCCC(=O)Nc1cccc(N)n1 [AH-11, 3-amino-N-(6-aminopyridin-2-yl)propanamide] | 4.2 |  |  |  |  | TM of 25 mer A-T-DNA after treatment (25 mer A-T-DNA [5]): 85 °C; effect on the TM of 25 mer C-G-DNA (25 mer C-G-DNA [6]): did not affect at all |
| 3-(9-(2-((2-(tert-butoxycarbonylamino)ethyl)(2-ethoxy-2-oxoethyl)amino)-2-oxoethyl)-2-oxo-2,9-dihydro-1H-purin-6-ylamino)-N,N,N-trimethylpropan-1-aminium [analog of M4-4a] | 0.3 |  | 5.6 | did not affect | 90.1 |  |
| NCCCC(=O)Nc1cccc(NC(=O)CCCN)n1 [AH-14, N,N′-(pyridine-2,6-diyl)bis(4-aminobutanamide)] | 11.7 |  | 0.8 | most effective compound |  |  |
